A value given as a limit tells only on which side of the number the result lay.

These results are taken from patent publication US11111238B2, “Coumarin derivatives, processes for their preparation and uses thereof for the treatment of cancer” (Lead Discovery Center GmbH, priority 2017, dated 2021).

In this experiment the target is mitochondrial RNA-polymerase (POLRMT) (Mus musculus, UniProt Q8BKF1). The experiment in a line: Homogeneous TR-FRET assay for mitochondrial transcription activity. In kind it is biochemical. The settings on record: homogeneous TR-FRET assay according to Example 4; activity class. From the text: The TR-FRET assay was basically conducted as described in WO2016/193,231A1, especially as described in example 1 (hereby incorporated by reference). With respect to the background of the mitochondrial transcription it is referred to Falkenberg et al. (2002) and Posse et al. (Posse et al., 2015). The method monitors the activity of mitochondrial RNA-polymerase via detection of the formation of its product, a 407 bp long RNA sequence. Detection of the product is facilitated by hybridization of two DNA-oligonucleotide probes to specific and adjacent sequences within the RNA product sequence. Upon annealing of the probes, two fluorophores that are coupled directly to an acceptor nucleotide probe (ATT0647, 5′) or introduced via a coupled streptavidin interacting with a biotinylated donor nucleotide probe on the other side (Europium cryptate, 3′) are brought into sufficient proximity to serve as a fluorescence-donor-acceptor pair as generally described in Walters and Namchuk (2003). Thus, a FRET signal at 665 nm is generated upon excitation at 340 nm.
mitochondrial RNA-polymerase (POLRMT), sequence (Q8BKF1 42-1207): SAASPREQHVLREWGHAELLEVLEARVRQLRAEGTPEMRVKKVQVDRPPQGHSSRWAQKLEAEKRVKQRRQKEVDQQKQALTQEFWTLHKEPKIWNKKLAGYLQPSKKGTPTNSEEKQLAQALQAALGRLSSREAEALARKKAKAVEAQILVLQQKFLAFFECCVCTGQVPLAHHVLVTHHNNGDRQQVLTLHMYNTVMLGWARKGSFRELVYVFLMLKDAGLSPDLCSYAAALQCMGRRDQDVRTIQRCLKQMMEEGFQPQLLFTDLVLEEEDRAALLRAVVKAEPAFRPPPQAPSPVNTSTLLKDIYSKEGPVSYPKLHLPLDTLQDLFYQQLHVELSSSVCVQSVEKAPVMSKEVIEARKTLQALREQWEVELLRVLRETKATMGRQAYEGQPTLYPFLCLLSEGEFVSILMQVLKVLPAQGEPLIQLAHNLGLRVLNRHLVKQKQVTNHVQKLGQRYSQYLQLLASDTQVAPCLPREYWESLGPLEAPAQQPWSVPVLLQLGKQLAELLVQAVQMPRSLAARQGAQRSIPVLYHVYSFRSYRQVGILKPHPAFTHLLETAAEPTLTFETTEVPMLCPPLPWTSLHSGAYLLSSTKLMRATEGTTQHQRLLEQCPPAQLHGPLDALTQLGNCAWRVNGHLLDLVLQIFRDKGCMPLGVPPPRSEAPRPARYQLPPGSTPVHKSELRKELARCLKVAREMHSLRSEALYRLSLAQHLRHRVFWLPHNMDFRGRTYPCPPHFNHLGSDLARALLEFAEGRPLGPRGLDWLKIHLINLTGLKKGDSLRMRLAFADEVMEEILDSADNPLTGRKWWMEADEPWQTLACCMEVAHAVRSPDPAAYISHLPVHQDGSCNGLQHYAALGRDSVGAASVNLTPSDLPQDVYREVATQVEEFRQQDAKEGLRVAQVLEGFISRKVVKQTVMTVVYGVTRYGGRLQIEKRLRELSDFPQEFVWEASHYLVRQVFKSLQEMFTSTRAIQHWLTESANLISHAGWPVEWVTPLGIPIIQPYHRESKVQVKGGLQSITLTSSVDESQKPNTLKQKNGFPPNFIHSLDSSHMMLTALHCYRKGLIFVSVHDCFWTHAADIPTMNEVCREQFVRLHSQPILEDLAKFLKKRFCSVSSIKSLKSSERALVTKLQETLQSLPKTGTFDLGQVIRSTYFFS
Briefly, the protocol described here was applied for screening and activity determination in a low-volume 384-well microtiter plate with non-binding surface. For high-throughput application in the 1536-well microtiter plate format, volumes of the reagent mixes were adjusted, maintaining the volumetric ratio. Proteins POLRMT (NM_172551.3), TFAM (NM_009360.4) and TFB2 M (NM_008249.4) were diluted from their stocks to working concentrations of 150 nM, 1.8 μM and 330 nM respectively, in a dilution buffer containing 100 mM Tris-HCl pH 8.0, 200 mM NaCl, 10% (v/v) glycerole, 2 mM glutathione (GSH), 0.5 mM EDTA and 0.1 mg/mL BSA. Protein dilutions and template DNA, comprising a pUC18 plasmid encoding the mitochondrial light strand promoter, restriction linearized proximal to the promoter 3′-end (pUC-LSP), were mixed at the twofold final assay-concentration in a reaction buffer, containing 10 mM Tris-HCl pH 7.5, 10 mM MgCl2, 40 mM NaCl, 2 mM GSH, 0.01% (w/v) Tween-20 and 0.1 mg/mL BSA.
5 μL of this mix were dispensed, depending on the chosen microtiter plate format, using multi-channel pipettes or a Multidrop® dispenser (Thermo Fisher Scientific, Waltham Mass.) into the wells of a microtiter plate and incubated at room temperature (RT) for 10 min. Chemical compounds under scrutiny in the assay were applied using contact-free acoustic droplet-dispensing (Echo520® Labcyte Inc., Sunnyvale Calif.) from 10 mM compound stocks in 100% DMSO, to a final concentration of 10 μM or in serial dilution series of the required concentration range. Equal amounts of DMSO without any compound were added to positive control samples, followed by an incubation step at RT for 10 min.
The enzymatic reaction was started by the addition of 5 μL of a mix of […] in reaction buffer to a final concentration of 500 μM each. No nucleotide mix was added to negative control samples. The content of the wells was mixed using a VarioTeleshaker™ (Thermo Fisher Scientific, Waltham Mass.) at 1,500 rpm for 45 sec after which the microtiter plate was centrifuged at 500×g for 1 min. The samples were incubated for 2 h at RT with humidity control to avoid evaporation. The detection reagents were prepared in a buffer that was composed, such that the enzymatic reaction was terminated due to chelating of Mg-ions and increased ionic strength, containing 50 mM Tris-HCl pH 7.5, 700 mM NaCl, 20 mM EDTA, and 0.01% (w/v) Tween-20. Importantly Eu-cryptate-coupled streptavidin had to be pre-incubated with a 100-fold molar excess of a random sequence oligonucleotide for 10 min at RT in the dark to block unspecific binding of single stranded RNA to the protein. Subsequently, the blocked streptavidin(—Eu) was mixed with the DNA-probes on ice and kept away from light until use. […]
For orientation: Time-resolved FRET reads energy transfer from a long-lived donor to a nearby acceptor.
By IC50 is commonly meant the concentration that inhibits the measured activity by half. A low value points to greater potency in that assay. Regarding `CC(Oc1ccc2c(-c3ccc(F)cc3Cl)cc(=O)oc2c1)C(=O)NC1CC1` (centres unmarked) [Compound 90, 2-[4-(2-chloro-4-fluoro-phenyl)-2-oxo-chromen-7-yl]oxy-N-cyclopropyl-propanamide], the half-inhibitory concentration (IC50) lay within 0.02 to 0.1 µM. The figure for `CC(Oc1ccc2c(-c3cccc(F)c3Cl)cc(=O)oc2c1)C(=O)O` (centres unmarked) [Compound 94, 2-[4-(2-chloro-3-fluoro-phenyl)-2-oxo-chromen-7-yl]oxypropanoic acid] is 0.02 to 0.1 µM; for `CCOC(=O)C1(C)CCCN(C(=O)C(C)Oc2ccc3c(-c4ccc(F)cc4Cl)cc(=O)oc3c2)C1` (centres unmarked) [Compound 95, ethyl 1-[2-[4-(2-chloro-4-fluoro-phenyl)-2-oxo-chromen-7-yl]oxypropanoyl]-3-methyl-piperidine-3-carboxylate] it is 0.1 to 1 µM; for `CC(Oc1ccc2c(-c3ccccc3Cl)cc(=O)oc2c1)C(=O)O` (centres unmarked) [Compound 96, 2-[4-(2-chlorophenyl)-2-oxo-chromen-7-yl]oxypropanoic acid] it is 0.1 to 1 µM.

As for `Cc1ccccc1-c1cc(=O)oc2cc(OC(C)C(=O)O)ccc12` (centres unmarked) [Compound 97, 2-[4-(o-tolyl)-2-oxo-chromen-7-yl]oxypropanoic acid], the IC50 was 0.1 to 1 µM. Compound `CC(Oc1ccc2c(-c3ccc(F)cc3Cl)cc(=O)oc2c1)C(=O)O` (centres unmarked) [Compound 99, 2-((4-(2-chloro-4-fluorophenyl)-2-oxo-2H-chromen-7-yl)oxy)propanoic acid] showed an IC50 of 0.1 to 1 µM. `COC(=O)C[C@@H]1CCCN(C(=O)[C@@H](C)Oc2ccc3c(-c4ccccc4Cl)cc(=O)oc3c2)C1` [Compound 100, methyl 2-[(3S)-1-[(2R)-2-[4-(2-chlorophenyl)-2-oxo-chromen-7-yl]oxypropanoyl]-3-piperidyl]acetate] returned an IC50 below 0.02 µM. For the compound `COC(=O)C[C@H]1CCCN(C(=O)[C@@H](C)Oc2ccc3c(-c4ccccc4Cl)cc(=O)oc3c2)C1` [Compound 101, methyl 2-[(3R)-1-[(2R)-2-[4-(2-chlorophenyl)-2-oxo-chromen-7-yl]oxypropanoyl]-3-piperidyl]acetate], the half-inhibitory concentration (IC50) is below 0.02 µM. Turning to `C[C@@H](Oc1ccc2c(-c3ccccc3Cl)cc(=O)oc2c1)C(=O)N1CCC[C@@H](CC(=O)O)C1` [Compound 102, 2-[(3S)-1-[(2R)-2-[4-(2-chlorophenyl)-2-oxo-chromen-7-yl]oxypropanoyl]-3-piperidyl]acetic acid], the IC50 was below 0.02 µM. Consider `C[C@@H](Oc1ccc2c(-c3ccccc3Cl)cc(=O)oc2c1)C(=O)N1CCC[C@H](CC(=O)O)C1` [Compound 103, 2-[(3R)-1-[(2R)-2-[4-(2-chlorophenyl)-2-oxo-chromen-7-yl]oxypropanoyl]-3-piperidyl]acetic acid], for which the concentration for half-maximal inhibition (IC50) was below 0.02 µM. For `C[C@@H](Oc1ccc2c(-c3ccc(F)cc3Cl)cc(=O)oc2c1)C(=O)N1CCC[C@@H](C(=O)O)C1` [Compound 108, (3R)-1-[(2R)-2-[4-(2-chloro-4-fluoro-phenyl)-2-oxo-chromen-7-yl]oxypropanoyl]piperidine-3-carboxylic acid], the IC50 was below 0.02 µM. The value for `CCOC(=O)[C@H]1CCCN(C(=O)C(CC)Oc2ccc3c(-c4ccccc4Cl)cc(=O)oc3c2)C1` (stereo partly drawn) [Compound 109, ethyl (3S)-1-[2-[4-(2-chlorophenyl)-2-oxo-chromen-7-yl]oxybutanoyl]piperidine-3-carboxylate] was 0.02 to 0.1 µM; that for `CC(C)(Oc1ccc2c(-c3ccccc3Cl)cc(=O)oc2c1)C(=O)O` [Compound 112, 2-[4-(2-chlorophenyl)-2-oxo-chromen-7-yl]oxy-2-methyl-propanoic acid] was 0.1 to 1 µM. The figure for `CCOC(=O)C(C)(C)Oc1ccc2c(-c3ccccc3Cl)cc(=O)oc2c1` [Compound 113, ethyl 2-[4-(2-chlorophenyl)-2-oxo-chromen-7-yl]oxy-2-methyl-propanoate] is 0.1 to 1 µM.

Take `COC(=O)C1CCN(C(=O)[C@@H](C)Oc2ccc3c(-c4ccc(F)cc4Cl)cc(=O)oc3c2)CC1` [Compound 129, methyl 1-[(2R)-2-[4-(2-chloro-4-fluoro-phenyl)-2-oxo-chromen-7-yl]oxypropanoyl]piperidine-4-carboxylate]: the 50% inhibitory concentration (IC50) is below 0.02 µM. The value for `C[C@@H](Oc1ccc2c(-c3ccc(F)cc3Cl)cc(=O)oc2c1)C(=O)Nc1ccc(CO)cc1` [Compound 130, (2R)-2-[4-(2-chloro-4-fluoro-phenyl)-2-oxo-chromen-7-yl]oxy-N-[4-(hydroxymethyl)phenyl]propanamide] was below 0.02 µM. For the compound `C[C@@H](Oc1ccc2c(-c3ccc(F)cc3Cl)cc(=O)oc2c1)C(=O)N1CCC(C(=O)O)CC1` [Compound 131, 1-[(2R)-2-[4-(2-chloro-4-fluoro-phenyl)-2-oxo-chromen-7-yl]oxypropanoyl]piperidine-4-carboxylic acid], the half-inhibitory concentration (IC50) is 0.02 to 0.1 µM. The figure for `C[C@@H](Oc1ccc2c(-c3ccc(F)cc3Cl)cc(=O)oc2c1)C(=O)N1CCC[C@H](C(N)=O)C1` [Compound 132, (3S)-1-[(2R)-2-[4-(2-chloro-4-fluoro-phenyl)-2-oxo-chromen-7-yl]oxypropanoyl]piperidine-3-carboxamide] is below 0.02 µM.

In turn, `C[C@@H](Oc1ccc2c(-c3ccc(F)cc3Cl)cc(=O)oc2c1)C(=O)N1CCC[C@H](CC(N)=O)C1` [Compound 133, 2-[(3R)-1-[(2R)-2-[4-(2-chloro-4-fluoro-phenyl)-2-oxo-chromen-7-yl]oxypropanoyl]-3-piperidyl]acetamide] displayed a half-maximal inhibitory concentration (IC50) below 0.02 µM. `CCc1ccccc1-c1cc(=O)oc2cc(O[C@H](C)C(=O)N3CCC[C@H](C(=O)O)C3)ccc12` [Compound 134, (3S)-1-[(2R)-2-[4-(2-ethylphenyl)-2-oxo-chromen-7-yl]oxypropanoyl]piperidine-3-carboxylic acid] yielded a half-inhibitory concentration (IC50) below 0.02 µM. `COC(=O)[C@@H]1CN(C(=O)[C@@H](C)Oc2ccc3c(-c4ccc(F)cc4Cl)cc(=O)oc3c2)CCN1` [Compound 135, methyl (2S)-4-[(2R)-2-[4-(2-chloro-4-fluoro-phenyl)-2-oxo-chromen-7-yl]oxypropanoyl]piperazine-2-carboxylate] gave a concentration for half-maximal inhibition (IC50) of 0.1 to 1 µM. For `C[C@@H](Oc1ccc2c(-c3ccc(F)cc3Cl)cc(=O)oc2c1)C(=O)N1CCN[C@H](C(=O)O)C1` [Compound 138, (2S)-4-[(2R)-2-[4-(2-chloro-4-fluoro-phenyl)-2-oxo-chromen-7-yl]oxypropanoyl]piperazine-2-carboxylic acid], the half-maximal inhibitory concentration (IC50) was 0.02 to 0.1 µM. In the case of `COCCc1ccc(NC(=O)[C@@H](C)Oc2ccc3c(-c4ccc(F)cc4Cl)cc(=O)oc3c2)cc1` [Compound 140, (2R)-2-[4-(2-chloro-4-fluoro-phenyl)-2-oxo-chromen-7-yl]oxy-N-[4-(2-methoxyethyl)phenyl]propanamide], the IC50 fell in the range of 0.1 to 1 µM.

In turn, `COC(=O)C[C@H]1CCN(C(=O)[C@@H](C)Oc2ccc3c(-c4ccc(F)cc4Cl)cc(=O)oc3c2)C1` [Compound 142, methyl 2-[(3R)-1-[(2R)-2-[4-(2-chloro-4-fluoro-phenyl)-2-oxo-chromen-7-yl]oxypropanoyl]pyrrolidin-3-yl]acetate] came in with an IC50 of 0.02 to 0.1 µM. Take `COC(=O)c1cncc(NC(=O)[C@@H](C)Oc2ccc3c(-c4ccc(F)cc4Cl)cc(=O)oc3c2)c1` [Compound 143, methyl 5-[[(2R)-2-[4-(2-chloro-4-fluoro-phenyl)-2-oxo-chromen-7-yl]oxypropanoyl]amino]pyridine-3-carboxylate]: the IC50 was 0.1 to 1 µM. In turn, `COC(=O)C[C@@H]1CCN(C(=O)[C@@H](C)Oc2ccc3c(-c4ccc(F)cc4Cl)cc(=O)oc3c2)C1` [Compound 144, methyl 2-[(3S)-1-[(2R)-2-[4-(2-chloro-4-fluoro-phenyl)-2-oxo-chromen-7-yl]oxypropanoyl]pyrrolidin-3-yl]acetate] registered a half-inhibitory concentration (IC50) of 0.02 to 0.1 µM.
